1 compound from patent US12115233B2, “Imaging and radiotherapeutics agents targeting fibroblast-activation protein-α (FAP-α)” (The Johns Hopkins University, priority 2017, dated 2024) can be followed below.

In data set [1] the test system is FAP-negative cell lines (PC3, NCIH226, and HCT116). The experiment in a line: Cellular uptake of XY-FAP-01 in FAP-negative cell lines (fluorescence imaging). As to conditions: all concentrations (50 nM to 0.78 nM). In kind it is cell-based, human. The text has this:
(§1) 1.5 Cell lines. Six human cancer cell lines were used to assess binding to FAP: glioblastoma (U-87-MG), melanoma (SK-MEL-24), prostate (PC-3), non-small cell lung cancer (NCI-H2228), colorectal carcinoma (HCT 116), and lung squamous cell carcinoma (NCI-H226). From the literature, U-87-MG, SK-MEL-24, and NCI-H2228 cell lines were identified as having high levels of FAP expression [FAP-positive (+)] whereas PC-3, NCI-H226, and HCT 116 cells expressed very low levels of FAP [FAP-negative(−)]. These expression profiles were further confirmed via flow cytometry with an APC-conjugated anti-FAP antibody (R&D Systems, Minneapolis, MN) and quantitative real-time PCR. All cell lines were purchased from American Type Culture Collection (ATCC, Manassas, VA).
1.6 Cellular Uptake Studies. All cellular uptake and specific binding studies were performed in triplicate to ensure reproducibility. Cells were detached using 0.05% trypsin (Corning), resuspended in 1 million cell aliquots in binding buffer, and incubated with various concentrations (range, 50 nM to 0.78 nM) of XY-FAP-01 for 1 hour at 37° C. and 5% CO2. […] Cellular uptake was terminated by washing cells with ice cold PBS (1×) three times. […] Images were analyzed using the LI-COR Pearl Impulse Software (Version 2.0) and fluorescence intensity was corrected for background signal and normalized to well area.

Data set [2] is described as follows: Small-animal NIRF imaging, tracer clearance. As to conditions: after one hour of distribution. In kind it is in vivo, NOD/SKID mice. Here is the method:
(§2) 1.7 Small-Animal Near Infrared Fluorescence (NIRF) Imaging. NIRF images were acquired on the LI-COR Pearl Impulse Imager using an excitation wavelength of 785 nm and a detection wavelength of 800 nm. Mice utilized for imaging studies were anesthetized with 3% isofluorane (v/v) and maintained at 1.5% isofluorane for the imaging procedure. NOD/SKID mice bearing FAP+ U-87-MG and FAP-PC-3 tumor xenografts were injected with 10 nmol of XY-FAP-01 via tail vein injection and images were acquired at 30 min, 1 h, 2 h, 2.5 h, and 4 h after injection of tracer.
(§3) 1.11 Xenograft Tumor Model. 6-week old female NOD/SCID mice were subcutaneously injected in the upper left and right flanks with 1 million U87(FAP+) cells and PC3 cells (FAP-) in RPMI 1640 media supplemented with 1% FBS. Mice were monitored for tumor size and used for optical or SPECT/CT imaging when the size of tumor reached around 100 mm3.

The subject of data set [3] is FAP+ U-87-MG tumor xenograft. The data set can be described thus: Small-animal NIRF imaging, FAP positive xenograft. In kind it is in vivo, NOD/SKID mice. The method, then: as §2, §3
Data set [4] deals with FAP-positive cell lines (NCIH2228, U87, and SKMEL24). The data set can be described thus: Cellular uptake of XY-FAP-01 in FAP-positive cell lines (fluorescence imaging). In kind it is cell-based, human.
From the text: as §1
1.6 Cellular Uptake Studies. All cellular uptake and specific binding studies were performed in triplicate to ensure reproducibility. Cells were detached using 0.05% trypsin (Corning), resuspended in 1 million cell aliquots in binding buffer, and incubated with various concentrations (range, 50 nM to 0.78 nM) of XY-FAP-01 for 1 hour at 37° C. and 5% CO2. […] Cellular uptake was terminated by washing cells with ice cold PBS (1×) three times. Cells were resuspended in binding buffer and transferred to a 96-well plate for imaging. Images were acquired on the LI-COR Pearl Impulse Imager (Lincoln, NE) using an excitation wavelength of 785 nm and detection of the emission wavelength at 800 nm. Images were analyzed using the LI-COR Pearl Impulse Software (Version 2.0) and fluorescence intensity was corrected for background signal and normalized to well area.

Another data set deals with T1, human recombinant FAP (Homo sapiens, UniProt Q12884).
T1 construct: purchased BPS Bioscience, San Diego, CA
T1 sequence (Q12884 26-760 limits assumed): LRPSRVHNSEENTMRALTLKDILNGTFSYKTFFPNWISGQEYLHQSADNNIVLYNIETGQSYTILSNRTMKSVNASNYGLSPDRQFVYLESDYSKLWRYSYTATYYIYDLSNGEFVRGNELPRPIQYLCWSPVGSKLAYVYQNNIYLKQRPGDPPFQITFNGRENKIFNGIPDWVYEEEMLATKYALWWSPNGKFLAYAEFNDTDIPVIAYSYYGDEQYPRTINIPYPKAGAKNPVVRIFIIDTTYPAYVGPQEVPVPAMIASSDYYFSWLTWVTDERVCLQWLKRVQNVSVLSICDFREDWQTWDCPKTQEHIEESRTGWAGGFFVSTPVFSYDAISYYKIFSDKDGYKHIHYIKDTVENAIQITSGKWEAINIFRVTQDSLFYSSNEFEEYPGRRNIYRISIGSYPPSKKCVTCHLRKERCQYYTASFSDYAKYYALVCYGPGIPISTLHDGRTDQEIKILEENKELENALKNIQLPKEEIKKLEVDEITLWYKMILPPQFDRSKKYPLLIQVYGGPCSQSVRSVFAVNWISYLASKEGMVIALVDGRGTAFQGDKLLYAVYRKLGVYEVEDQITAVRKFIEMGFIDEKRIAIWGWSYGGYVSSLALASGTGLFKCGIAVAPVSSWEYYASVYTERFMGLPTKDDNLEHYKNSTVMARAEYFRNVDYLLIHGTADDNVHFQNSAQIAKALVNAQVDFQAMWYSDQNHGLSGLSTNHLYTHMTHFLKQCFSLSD
The experiment in a line: FAP Inhibition Assay (fluorogenic FAP Assay Kit). In kind it is biochemical. As to conditions: DPP substrate, 10 minutes at room temperature, Ki from IC50 by Cheng-Prusoff conversion, read-out: enzyme inhibitory constant (Ki). Here is the method:
1.4 FAP Inhibition Assay. The inhibitory activity of XY-FAP-01 was determined using a fluorogenic FAP Assay Kit (BPS Bioscience, San Diego, CA). Briefly, XY-FAP-01, DPP substrate, and human recombinant FAP were loaded into a 96 well plate to initiate the enzyme reaction. The reaction was left for 10 minutes at room temperature before fluorescence was measured with a VICTOR3 V multilabel plate reader (PerkinElmer Inc., Waltham, MA). Data was normalized and semi-log inhibition curves were generated in order to determine the IC50 value (concentration of XY-FAP-01 where the enzyme activity is 50% inhibited) for XY-FAP-01 and subsequent enzyme inhibition constant (Ki) using the Cheng-Prusoff conversion. Generation of semi-log inhibition curves and IC50 values were done using GraphPad Prism (San Diego, CA).

Another data set concerns FAP-PC-3 tumor xenograft. The data set can be described thus: Small-animal NIRF imaging, FAP negative xenograft. In kind it is in vivo, NOD/SKID mice. As to conditions: all imaging time points (30 min to 4 h). The method, then:
as §2, §3

Consider `CC1(C)C(=CC=C2CCCC(C=CC3=[N+](CCCCCC(=O)NCCCOc4ccc5nccc(C(=O)NCC(=O)N6CCC[C@H]6C#N)c5c4)c4ccc(S(=O)(=O)[O-])cc4C3(C)C)=C2Oc2ccc(S(=O)(=O)O)cc2)N(CCCCS(=O)(=O)O)c2ccc(S(=O)(=O)O)cc21` [XY-FAP-01], for which the “binding of XY-FAP-01 in FAP-negative cell lines” value in data set [1] is “no significant binding”. Besides, the “tracer clearance (NIRF)” value in data set [2] is reported as “tracer clearance via the bladder was observed”. Also, in data set [3] (10 nmol via tail vein, as early as 30 minutes post injection), the “tracer uptake in U-87-MG xenograft (NIRF)” value is reported as “specific uptake”. Also, the “tracer uptake in the positive xenograft (NIRF)” value in data set [3] (after four hours of distribution) is on record as “retained”. Besides, in data set [3] (summary statement), the “uptake in vivo on FAP-α+ U87 tumor” value is “selective uptake”. Further, the “uptake of XY-FAP-01 in FAP-positive cell lines” value in data set [4] (50 nM to 0.78 nM, 1 hour at 37° C.) was “concentration dependent uptake”. The “XY-FAP-01 binding when preblocked with a DPP-IV specific inhibitor” value in data set [4] (FAP-positive cell lines, 25 nM tracer, preblock with Sitagliptin) was “did not result in a change of binding ability”. Moreover, in data set [4] (FAP-positive cell lines, 1 hour at 37° C.), the “concentration at which saturated binding was observed” value was determined as 25 nM. For the same compound, the “XY-FAP-01 binding when preblocked with a FAP and DPP-IV specific inhibitor” value in data set [4] (FAP-positive cells, 25 nM tracer, preblock with Val-boroPro (Talabostat)) is recorded as “significantly inhibited”. In data set [4] (summary statement), the “uptake in vitro on FAP-α+ U87 cell line” value was “selective uptake”. On human recombinant FAP, the Ki stood at 1.26 nM. The “tracer uptake in the FAP negative tumor (NIRF)” value in the data set with FAP-PC-3 tumor xenograft is “no significant uptake”.
